According to patent US7157432B2, “Tetraphenylbacteriochlorin derivatives and compositions containing the same” (San-Ei Gen F.F.I., Inc., priority 2000, dated 2007):

System: HeLa cells
Experiment: Phototoxicity test (MTT assay, viability of HeLa cells after irradiation)
Type: cell-based
Conditions: test compound 5 or 10 μM for two hours, 500 W halogen lamp with filter cutting off light shorter than 500 nm for 8 minutes, MTT after 24 hours
Description: Each of Compounds 1 to 16 was evaluated about its cytotoxicity by viability of HeLa cells using MTT assay (Carmichal, J., W. G. DeGraff, A. F. Gazdar, J. D. Minna and J. B. Mitchell, Cancer Res., 1987, 47, 936–942). HeLa cells (1×10^4 cells/well) were incubated in Dulbecco's modified Eagle's medium (DMEM) containing 10% fetal bovine serum (FBS) on a 96-well plate in 5% CO2 at 37° C. for 24 hours. After washing with phosphate buffered saline (PBS), the cells were incubated in DMEM without serum in the presence of each of the compounds to be tested (5 or 10 μM) for two hours. The cells were washed with PBS and irradiated with a 500 W halogen lamp equipped with a filter cutting off the light shorter than 500 nm wave length for 8 minutes. After 24 hours' incubation, the viability was measured by the MTT assay. HeLa cells without test compound were used as a control. […] The survival ratio of the cells is calculated by the following formula: Cell survival ratio (%)=(OD540 in presence of test compound with irradiation/OD540 in presence of test compound without irradiation)×100. A cell survival ratio of 100% means the absence of cytotoxicity.

| Compound | cytotoxicity when irradiated with light (cell survival ratio, FIG. 2) |
| --- | --- |
| O[C@@H]1[C@H](Oc2cccc(-c3c4nc(c(-c5cccc(O[C@@H]6OC[C@@H](O)[C@@H](O)[C@@H]6O)c5)c5ccc([nH]5)c(-c5cccc(O[C@@H]6OC[C@@H](O)[C@@H](O)[C@@H]6O)c5)c5nc(c(-c6cccc(O[C@@H]7OC[C@@H](O)[C@@H](O)[C@@H]7O)c6)c6ccc3[nH]6)CC5)CC4)c2)OC[C@@H](O)[C@H]1O [Compound 14, 5,10,15,20-tetrakis[3-(β-D-arabinopyranosyloxy)phenyl]-bacteriochlorin] | exhibited cytotoxicity |
| OC[C@H]1O[C@@H](Oc2cccc(-c3c4nc(c(-c5cccc(O[C@@H]6O[C@H](CO)[C@@H](O)[C@H](O)[C@H]6O)c5)c5ccc([nH]5)c(-c5cccc(O[C@@H]6O[C@H](CO)[C@@H](O)[C@H](O)[C@H]6O)c5)c5nc(c(-c6cccc(O[C@@H]7O[C@H](CO)[C@@H](O)[C@H](O)[C@H]7O)c6)c6ccc3[nH]6)CC5)CC4)c2)[C@H](O)[C@@H](O)[C@@H]1O [Compound 10, 5,10,15,20-tetrakis[3-(β-D-glucopyranosyloxy)phenyl]-bacteriochlorin] | exhibited cytotoxicity |
| O[C@@H]1[C@@H](O)[C@H](Oc2cccc(-c3c4nc(c(-c5cccc(O[C@@H]6OC[C@@H](O)[C@H](O)[C@H]6O)c5)c5ccc([nH]5)c(-c5cccc(O[C@@H]6OC[C@@H](O)[C@H](O)[C@H]6O)c5)c5nc(c(-c6cccc(O[C@@H]7OC[C@@H](O)[C@H](O)[C@H]7O)c6)c6ccc3[nH]6)CC5)CC4)c2)OC[C@H]1O [Compound 16, 5,10,15,20-tetrakis[3-(β-D-xylopyranosyloxy)phenyl]bacteriochlorin] | exhibited cytotoxicity |

System: not listed separately
Experiment: UV absorption in DMSO at 20° C.
Type: physicochemical
Conditions: FIG. 1
Description: As clearly shown in FIG. 1, the compounds of the present invention have a strong UV absorption peak around 740 nm. Compounds 3 to 8 and 11 to 16 show an UV absorption pattern similar to that of tetraphenylbacteriochlorin and also have a strong UV absorption peak around 740 nm.

| Compound | strong UV absorption peak |
| --- | --- |
| OC[C@H]1O[C@@H](Oc2ccc(-c3c4nc(c(-c5ccc(O[C@@H]6O[C@H](CO)[C@@H](O)[C@H](O)[C@H]6O)cc5)c5ccc([nH]5)c(-c5ccc(O[C@@H]6O[C@H](CO)[C@@H](O)[C@H](O)[C@H]6O)cc5)c5nc(c(-c6ccc(O[C@@H]7O[C@H](CO)[C@@H](O)[C@H](O)[C@H]7O)cc6)c6ccc3[nH]6)CC5)CC4)cc2)[C@H](O)[C@@H](O)[C@@H]1O [Compound 9, 5,10,15,20-tetrakis[4-(β-D-glucopyranosyloxy)phenyl]-bacteriochlorin] | around 740 nm |
| CC(=O)OC[C@H]1O[C@@H](Oc2ccc(-c3c4nc(c(-c5ccc(O[C@@H]6O[C@H](COC(C)=O)[C@@H](OC(C)=O)[C@H](OC(C)=O)[C@H]6OC(C)=O)cc5)c5ccc([nH]5)c(-c5ccc(O[C@@H]6O[C@H](COC(C)=O)[C@@H](OC(C)=O)[C@H](OC(C)=O)[C@H]6OC(C)=O)cc5)c5nc(c(-c6ccc(O[C@@H]7O[C@H](COC(C)=O)[C@@H](OC(C)=O)[C@H](OC(C)=O)[C@H]7OC(C)=O)cc6)c6ccc3[nH]6)CC5)CC4)cc2)[C@H](OC(C)=O)[C@@H](OC(C)=O)[C@@H]1OC(C)=O [Compound 1, 5,10,15,20-tetrakis[4-(2′,3′,4′,6′-tetra-O-acetyl-β-D-glucopyranosyloxy)phenyl]bacteriochlorin] | around 740 nm |
| CC(=O)OC[C@H]1O[C@@H](Oc2cccc(-c3c4nc(c(-c5cccc(O[C@@H]6O[C@H](COC(C)=O)[C@@H](OC(C)=O)[C@H](OC(C)=O)[C@H]6OC(C)=O)c5)c5ccc([nH]5)c(-c5cccc(O[C@@H]6O[C@H](COC(C)=O)[C@@H](OC(C)=O)[C@H](OC(C)=O)[C@H]6OC(C)=O)c5)c5nc(c(-c6cccc(O[C@@H]7O[C@H](COC(C)=O)[C@@H](OC(C)=O)[C@H](OC(C)=O)[C@H]7OC(C)=O)c6)c6ccc3[nH]6)CC5)CC4)c2)[C@H](OC(C)=O)[C@@H](OC(C)=O)[C@@H]1OC(C)=O [Compound 2, 5,10,15,20-tetrakis[3-(2′,3′,4′,6′-tetra-O-acetyl-β-D-glucopyranosyloxy)phenyl]bacteriochlorin] | around 740 nm |
| OC[C@H]1O[C@@H](Oc2cccc(-c3c4nc(c(-c5cccc(O[C@@H]6O[C@H](CO)[C@@H](O)[C@H](O)[C@H]6O)c5)c5ccc([nH]5)c(-c5cccc(O[C@@H]6O[C@H](CO)[C@@H](O)[C@H](O)[C@H]6O)c5)c5nc(c(-c6cccc(O[C@@H]7O[C@H](CO)[C@@H](O)[C@H](O)[C@H]7O)c6)c6ccc3[nH]6)CC5)CC4)c2)[C@H](O)[C@@H](O)[C@@H]1O [Compound 10, 5,10,15,20-tetrakis[3-(β-D-glucopyranosyloxy)phenyl]-bacteriochlorin] | around 740 nm |
